According to patent US20220235064A1 (WELLMARKER BIO CO., LTD., priority 2019, published 2022):

Experiments:
[1] = tested on: cancer cell line KM12C, in which RON is activated; assay: Cell growth inhibitory ability in RON-activated cancer cell line (MTS); format: cell-based; conditions: Homo sapiens, 48 hours, absorbance 490 nm
In short: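 KM12C cells (RON-activated, MEM with FBS) exposed to compound […] for 48 h. MTS added 24 h after treatment ended, incubated 4 h at 37° C, absorbance read at 490 nm. IC50 derived from absorbance.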

[2] = tested on: cancer cell line HT29, in which mutated RON (Δ160) is expressed; assay: Cell-killing efficacy in RON-mutated cancer cell line HT29 (trypan blue); format: cell-based; conditions: for cytotoxicity at 1 µM / cytotoxicity at 5 µM: Homo sapiens, HT-29, 48 hours, trypan blue, n=2, read-out: Cell death (%) Cancer cell line HT29; for cell-killing effect (in words): HT29, as compared with the positive control
Protocol: (§1) Experimental Example 4: Measurement of Cell-Killing Efficacy of Example Compounds in RON-Mutated Cancer Cell Lines
(§2) Each of two colorectal cancer cell lines, that is, the cancer cell line HT29 (30038, KCLB, RPMI+10% FBS), in which mutated RON (Δ160) is expressed, and the cancer cell line SW620 (CCL-227, ATCC, RPMI+10% FBS), in which mutated RON (Δ155) is expressed, was dispensed into each 60 mm^2 dish at 1×10^5 cells. After 24 hours, the dish was treated with each of the example compounds at a concentration of 1 μM or 5 μM while performing medium exchange, and then reaction was allowed to proceed for 48 hours. After 48 hours, centrifugation was performed for 4 minutes at 1,500 rpm to collect cells and cell fluid. Thereafter, living cells and dead cells were quantified (n=2) using a trypan blue solution (15250-061, Gibco), and statistical analysis was performed using Excel-T-test. Here, as a negative control, only a solvent (0.10% DMSO) was used; and as a positive control, N-(4-(2-amino-3-chloropyridin-4-yloxy)-3-fluorophenyl)-4-ethoxy-1-(4-fluorophenyl)-2-oxo-1,2-dihydropyridine-3-carboxamide, which is the compound of Example 1 in WO 2008/058229 A1, was used.

[3] = tested on: cancer cell line KM12C, in which RON is activated; assay: Cell-killing efficacy in RON-activated cancer cell line (trypan blue); format: cell-based; conditions: for cytotoxicity at 1 µM / cytotoxicity at 5 µM: Homo sapiens, 48 hours, trypan blue, n=2, read-out: Cell death (%) Cancer cell line KM12C; for cell-killing effect (in words): as compared with the positive control
In short: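 KM12C cells seeded 1×10^5 per 60 mm^2 dish in MEM + 10% FBS, then exposed 24 h later to compound at 1 μM or 5 μM for 48 h.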

[4] = tested on: cancer cell line SW620, in which mutated RON (Δ155) is expressed; assay: Cell-killing efficacy in RON-mutated cancer cell line SW620 (trypan blue); format: cell-based; conditions: for cytotoxicity at 1 µM / cytotoxicity at 5 µM: Homo sapiens, SW-620, 48 hours, trypan blue, n=2, read-out: Cell death (%) Cancer cell line SW620; for cell-killing effect (in words): SW620, as compared with the positive control
Protocol: as §1, §2

[5] = biological target: T1, RON tyrosine kinase (Homo sapiens, UniProt Q04912); assay: Enzyme inhibitory activity against RON tyrosine kinase (TR-FRET); format: biochemical; conditions: RON (Carna Bioscience)
T1 construct: purchased Carna Bioscience
T1 sequence (Q04912 25-1400): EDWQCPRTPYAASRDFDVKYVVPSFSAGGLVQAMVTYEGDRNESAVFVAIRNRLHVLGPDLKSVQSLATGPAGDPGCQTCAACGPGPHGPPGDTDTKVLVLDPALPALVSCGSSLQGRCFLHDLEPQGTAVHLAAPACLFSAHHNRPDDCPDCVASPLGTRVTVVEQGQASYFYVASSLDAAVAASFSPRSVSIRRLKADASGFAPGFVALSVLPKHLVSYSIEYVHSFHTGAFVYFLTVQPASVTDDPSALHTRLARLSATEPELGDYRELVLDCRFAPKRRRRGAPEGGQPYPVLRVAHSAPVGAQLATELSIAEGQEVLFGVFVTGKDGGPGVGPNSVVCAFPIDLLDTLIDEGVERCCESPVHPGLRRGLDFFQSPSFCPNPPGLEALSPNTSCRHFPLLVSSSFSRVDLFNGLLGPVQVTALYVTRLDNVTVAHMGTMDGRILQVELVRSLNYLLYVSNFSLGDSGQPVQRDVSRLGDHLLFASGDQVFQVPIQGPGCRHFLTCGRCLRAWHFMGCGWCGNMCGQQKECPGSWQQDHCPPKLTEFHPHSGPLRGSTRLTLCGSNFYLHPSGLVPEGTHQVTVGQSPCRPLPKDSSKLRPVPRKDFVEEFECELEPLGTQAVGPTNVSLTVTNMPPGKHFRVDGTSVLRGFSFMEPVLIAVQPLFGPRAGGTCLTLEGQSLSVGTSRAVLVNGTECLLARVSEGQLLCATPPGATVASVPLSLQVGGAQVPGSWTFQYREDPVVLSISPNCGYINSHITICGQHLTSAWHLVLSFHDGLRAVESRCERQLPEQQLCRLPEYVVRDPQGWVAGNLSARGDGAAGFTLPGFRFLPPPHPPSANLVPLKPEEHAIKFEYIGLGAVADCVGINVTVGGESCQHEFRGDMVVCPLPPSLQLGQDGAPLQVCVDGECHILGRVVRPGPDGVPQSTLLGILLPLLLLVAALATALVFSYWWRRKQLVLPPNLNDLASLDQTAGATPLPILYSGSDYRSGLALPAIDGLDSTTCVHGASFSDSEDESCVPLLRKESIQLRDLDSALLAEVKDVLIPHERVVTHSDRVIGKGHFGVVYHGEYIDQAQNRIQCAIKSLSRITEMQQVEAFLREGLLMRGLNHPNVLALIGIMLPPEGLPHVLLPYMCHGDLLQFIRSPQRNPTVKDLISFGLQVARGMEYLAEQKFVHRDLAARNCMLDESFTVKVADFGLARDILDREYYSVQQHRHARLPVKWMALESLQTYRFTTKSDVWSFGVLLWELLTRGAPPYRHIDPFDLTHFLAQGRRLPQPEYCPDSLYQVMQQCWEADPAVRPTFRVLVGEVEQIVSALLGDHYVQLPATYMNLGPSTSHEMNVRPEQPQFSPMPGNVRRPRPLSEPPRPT
In short: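 Recombinant RON was preincubated with compound for 15 min at RT in 50 mM HEPES pH 7.5, 10 mM MgCl2, 1 mM EGTA, 2 mM DTT, 0.01% Tween-20. Enzyme (0.4 nM), ATP (60 μM) and tyrosine peptide (400 nM) were prepared at 2×, 4× and 4× final. After 60 min at RT, EDTA/Eu-anti-phosphotyrosine stop; IC50 from 665 nm TR-FRET emission.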

| Compound | IC50 [1] | IC50 [5] | cytotoxicity at 1 µM [2] | cytotoxicity at 5 µM [2] | cytotoxicity at 1 µM [3] | cytotoxicity at 5 µM [3] | cytotoxicity at 1 µM [4] | cytotoxicity at 5 µM [4] | cell-killing effect (in words) [2] | cell-killing effect (in words) [3] | cell-killing effect (in words) [4] |
| --- | --- | --- | --- | --- | --- | --- | --- | --- | --- | --- | --- |
| COc1cc2c(Oc3ccc(NC(=O)c4c5c(cn(-c6ccc(F)cc6)c4=O)CCO5)cc3F)ccnc2cc1OCCCN1CCOCC1 [Example 76, N-(3-Fluoro-4-((6-methoxy-7-(3-morpholinopropoxy)quinolin-4-yl)oxy)phenyl)-5-(4-fluorophenyl)-6-oxo-2,3,5,6-tetrahydrofuro[3,2-c]pyridine-7-carboxamide] | 4 nM | 1.79 nM | 21.9% | 28.6% | 35.7% | 38.3% | 46.4% | 67.8% | high cell-killing effect | high cell-killing effect | high cell-killing effect |
| O=C(Nc1ccc(Oc2ccnc3cc(OCCCN4CCOCC4)ccc23)c(F)c1)c1c2c(cn(-c3ccc(F)cc3)c1=O)CCO2 [Example 158, N-(3-Fluoro-4-((7-(3-morpholinopropoxy)quinolin-4-yl)oxy)phenyl)-5-(4-fluorophenyl)-6-oxo-2,3,5,6-tetrahydrofuro[3,2-c]pyridine-7-carboxamide] | 5 nM | 1.99 nM | 15.2% | 30.9% | 24.1% | 37.1% | 11.6% | 92.3% |  |  |  |
| COc1cc2c(Oc3ccc(NC(=O)c4c5c(cn(-c6ccc(F)cc6)c4=O)CCO5)cc3F)ccnc2cc1N [Example 181, N-(4-((7-Amino-6-methoxyquinolin-4-yl)oxy)-3-fluorophenyl)-5-(4-fluorophenyl)-6-oxo-2,3,5,6-tetrahydrofuro[3,2-c]pyridine-7-carboxamide] | 2 nM | 5.92 nM | 10.2% | 99.1% | 14.6% | 36.8% | 11.3% | 35% |  |  |  |
| COc1cc2c(Oc3ccc(NC(=O)c4c5c(cn(-c6ccc(F)cc6)c4=O)CCO5)cc3F)ccnc2cc1NC(C)=O [Example 184, N-(4-((7-Acetamido-6-methoxyquinolin-4-yl)oxy)-3-fluorophenyl)-5-(4-fluorophenyl)-6-oxo-2,3,5,6-tetrahydrofuro[3,2-c]pyridine-7-carboxamide] | 2 nM | 0.92 nM | 7.9% | 23.2% | 13.8% | 54.2% | 5% | 29.8% |  |  |  |
| COc1cc2c(Oc3ccc(NC(=O)c4c5c(cn(-c6ccc(F)cc6)c4=O)CCO5)cc3F)ccnc2cc1NCCN1CCOCC1 [Example 187, N-(3-Fluoro-4-((6-methoxy-7-((2-morpholinoethyl)amino)quinolin-4-yl)oxy)phenyl)-5-(4-fluorophenyl)-6-oxo-2,3,5,6-tetrahydrofuro[3,2-c]pyridine-7-carboxamide] | 6 nM | 3.86 nM | 8.4% | 34.3% | 20.4% | 60% | 23.9% | 50.5% | high cell-killing effect | high cell-killing effect | high cell-killing effect |
| COc1cc2c(Oc3ccc(NC(=O)c4c5c(cn(-c6ccc(F)cc6)c4=O)CCO5)cc3F)ccnc2cc1NCCCN1CCOCC1 [Example 188, N-(3-Fluoro-4-((6-methoxy-7-((3-morpholinopropyl)amino)quinolin-4-yl)oxy)phenyl)-5-(4-fluorophenyl)-6-oxo-2,3,5,6-tetrahydrofuro[3,2-c]pyridine-7-carboxamide] | 8 nM | 3.23 nM | 28.7% | 94.4% | 25.4% | 57.3% | 26.9% | 31.6% | high cell-killing effect | high cell-killing effect | high cell-killing effect |

These reach a lower IC50 [1]. Values come first.

| IC50 [1] | IC50 [5] | Compound | cytotoxicity at 1 µM [2] | cytotoxicity at 5 µM [2] | cytotoxicity at 1 µM [3] | cytotoxicity at 5 µM [3] | cytotoxicity at 1 µM [4] | cytotoxicity at 5 µM [4] | cell-killing effect (in words) [2] | cell-killing effect (in words) [3] | cell-killing effect (in words) [4] |
| --- | --- | --- | --- | --- | --- | --- | --- | --- | --- | --- | --- |
| 0.3 nM | 0.66 nM | Cn1cnc(-c2cc3nccc(Oc4ccc(NC(=O)c5c6c(cn(-c7ccc(F)cc7)c5=O)CCO6)cc4F)c3s2)c1 [Example 8, N-(3-Fluoro-4-((2-(1-methyl-1H-imidazol-4-yl)thieno[3,2-b]pyridin-7-yl)oxy)phenyl)-5-(4-fluorophenyl)-6-oxo-2,3,5,6-tetrahydrofuro[3,2-c]pyridine-7-carboxamide] | 4.88% | 16.8% | 32.4% | 46.9% | 5.98% | 7.83% |  |  |  |
| 1 nM | 1.83 nM | COc1cc2nccc(Oc3ccc(NC(=O)c4c5c(cn(-c6ccc(F)cc6)c4=O)CCO5)cc3F)c2cc1NC(C)=O [Example 52, N-(4-((6-Acetamido-7-methoxyquinolin-4-yl)oxy)-3-fluorophenyl)-5-(4-fluorophenyl)-6-oxo-2,3,5,6-tetrahydrofuro[3,2-c]pyridine-7-carboxamide] | 10.5% | 16.1% | 10.1% | 24.7% | 13.6% | 81.8% |  |  |  |
| 1 nM | 4.67 nM | COc1cc2nccc(Oc3ccc(NC(=O)c4c5c(cn(-c6ccc(F)cc6)c4=O)CCO5)cc3F)c2cc1NCCN1CCOCC1 [Example 185, N-(3-Fluoro-4-((7-methoxy-6-((2-morpholinoethyl)amino)quinolin-4-yl)oxy)phenyl)-5-(4-fluorophenyl)-6-oxo-2,3,5,6-tetrahydrofuro[3,2-c]pyridine-7-carboxamide] | 5.1% | 32.4% | 32.5% | 63.8% | 28.1% | 70.2% | high cell-killing effect | high cell-killing effect | high cell-killing effect |
